Patent US20240165112A1, “THERAPY FOR THE TREATMENT OF CANCER” (Bristol-Myers Squibb Company, priority 2022, published 2024)

Legend:
[1] = tested on: Five tumor cell lines (4T1.2, A549, EMT6, NCI-H460, and HT29)
Method: (§1) Five tumor cell lines (4T1.2, A549, EMT6, NCI-H460, and HT29) were treated with a range of paclitaxel or 5-FU concentrations in the presence of dimethlylsulfoxide (DMSO), 5 μM Compound 1, or 20 μM Compound 1. Cells were imaged 4 days after treatment and percent confluence was assessed by image quantification. EC50 values for cell confluence were used to assess chemotherapy potency. Eleven patient-derived tumor organoids (MAXFTN449, MAXFTN2990, PAXF1657, PAXF2131, CXF1256, CXF2129, CXF2061, LXFE2478, LXFE690, LXFA677, LXFA644) were seeded in a 3D matrix and treated with a range of paclitaxel, 5-FU, SN38, Gemcitabine, oxaliplatin, and carboplatin concentrations in the presence of DMSO, 5 μM Compound 1, or 20 μM Compound 1. After 8 to 13 days in culture, colonies were stained, imaged, and counted. A dose response curve was generated for chemotherapy alone or chemotherapy in combination with 5 or 20 μM Compound 1. Combination activity was defined as a percentage of the area under the chemotherapy dose response curve (cAUC) for Compound 1 combination groups compared to the cAUC of chemotherapy alone.

[2] = tested on: PAXF2131 organoid, Pancreatic cancer; assay: 3D clonogenic assay in patient derived organoids; format: cell-based, human
Method: as §1
(§2) For combination experiments, working stock solutions of all compounds were prepared in DMSO at concentrations of 660-fold the highest test concentration used and stored at −20° C. Platin compounds were prepared freshly on each treatment day. On each day of an experiment, an aliquot of the working stock solutions was used and stored at room temperature prior to and during treatment. First, 1:2 dilutions of 660-fold concentrated working stocks were prepared in DMSO (in case of monotherapy controls), or equal amounts of the compound working stocks were mixed (in case of drug combinations). Then, different dilutions of these 330-fold concentrated solutions were prepared in DMSO to give an 8×2 matrix combination layout with conditions. The DMSO dilutions were further diluted […] into cell culture medium (IMDM, supplemented with 20% (v/v) fetal bovine serum, and 50 μg/mL gentamicin) in an intermediate dilution plate. Finally, 10 μL taken from the intermediate dilution plate were transferred to 140 μL of cells and medium per well of the final assay plate. Thus, the DMSO dilutions used for the mono- and the combination-treatment were diluted 1:660, and the DMSO concentration in the assay was […].
(§3) Tumors were passaged as subcutaneous xenografts in NMRI nu/nu mice. At a tumor volume of 400 to 1000 mm^3, tumor-bearing mice were euthanized, and tumors were collected under sterile conditions without delay. Tumors were mechanically disaggregated and subsequently incubated with an enzyme cocktail consisting of collagenase type IV (41 U/mL), DNase I (125 U/mL), hyaluronidase type III (100 U/mL), and dispase II (1 U/mL) in RPMI 1640 medium at 37° C. for 60 to 120 minutes. Cells were passed through sieves of 100 μm and 40 μm mesh size, and washed with RPMI 1640 medium. The percentage of viable cells was determined in a Neubauer-hemocytometer using trypan blue exclusion. Aliquots of the cells were frozen down and stored in liquid nitrogen vapor phase. On each day of an experiment, a frozen aliquot of tumor cells was thawed and used for preparation of assay plates.
(§4) The clonogenic assay was carried out in a 96 well plate format using ultra low attachment plates. For each test, plates were prepared as follows: each test well contained a layer of semi-solid medium with tumor cells (50 μL), and a second layer of medium supernatant with or without test compound (100 μL). The cell layer consisted of […] to 12.5×10^3 tumor cells per well, which were seeded in 50 μL/well cell culture medium (IMDM, supplemented with 20% (v/v) fetal bovine serum, 50 μg/mL gentamicin, and 0.4% (w/v) agar). After 24 hours, the soft-agar layer was covered with 90 μL of the same culture medium without agar, and 10 μL of control medium or test compound after serial dilution in DMSO for the duration of the experiment (continuous exposure, 100 μL drug overlay).

[3] = tested on: MAXFTN449 organoid, breast cancer (triple negative); assay: 3D clonogenic assay in patient derived organoids; format: cell-based, human
Method: as §1, §2, §3, §4

[4] = tested on: CXF2061 organoid, colon cancer; assay: 3D clonogenic assay in patient derived organoids; format: cell-based, human
Method: as §1, §2, §3, §4

[5] = tested on: PAXF1657 organoid, pancreatic cancer; assay: 3D clonogenic assay in patient derived organoids; format: cell-based, human
Method: as §1, §2, §3, §4

[6] = tested on: MAXFTN2990 organoid, breast cancer (triple negative); assay: 3D clonogenic assay in patient derived organoids; format: cell-based, human
Method: as §1, §2, §3, §4

[7] = tested on: CXF2129 organoid, colon cancer; assay: 3D clonogenic assay in patient derived organoids; format: cell-based, human
Method: as §1, §2, §3, §4

[8] = tested on: CXF1256 organoid, colon cancer; assay: 3D clonogenic assay in patient derived organoids; format: cell-based, human
Method: as §1, §2, §3, §4

HT29 cell line = assay: 2D cell line viability assay (cell confluence); format: cell-based; settings: Homo sapiens, HT-29, 96 h, 4 days
Description: (§5) FIGS. 4A-4E illustrate the effects of Compound 1 on the Potency of Paclitaxel in a 2D Cell Line Viability Assay. […] Data points indicate mean and Standard Deviation of 2 biological replicates. Graphs are representative of at least 2 independent experiments. […] Abbreviations: DMSO, dimethylsulfoxide.

NCI-H460 cell line = assay: 2D cell line viability assay (cell confluence); format: cell-based; settings: Homo sapiens, NCI-H460, 96 h, 4 days
Description: as §5

A549 cell line = assay: 2D cell line viability assay (cell confluence); format: cell-based; settings: Homo sapiens, A549, 96 h, 4 days
Description: as §5

4T1.2 cell line = assay: 2D cell line viability assay (cell confluence); format: cell-based, murine; settings: Mus musculus, 4T1.2, 96 h
Description: as §5

EMT6 cell line = assay: 2D cell line viability assay (cell confluence); format: cell-based, murine; settings: Mus musculus, EMT6, 96 h, 4 days
Description: as §5

[9] = chemotherapy dose titration + 5 μM Compound 1 vs chemotherapy alone
[10] = chemotherapy dose titration + 20 μM Compound 1 vs chemotherapy alone
[11] = in the presence of 5 μM Compound 1
[12] = in the presence of 20 μM Compound 1

Structure (SMILES): O=c1[nH]cc(F)c(=O)[nH]1 [Compound 5-FU, 5-Fluorouracil]
- potency of 5-FU in the presence of Compound 1 relative to 5-FU potency in the absence of Compound 1 [1]: ≤ 2 fold
- Combination activity 5 μM Compound 1 (cAUC % reduction) [2, 9]: 52%
- Combination activity 20 μM Compound 1 (cAUC % reduction) [2, 10]: 67%
- Combination activity 5 μM Compound 1 (cAUC % reduction) [3, 9]: 29%
- Combination activity 20 μM Compound 1 (cAUC % reduction) [3, 10]: 14%
- Combination activity 5 μM Compound 1 (cAUC % reduction) [4, 9]: 25%
- Combination activity 20 μM Compound 1 (cAUC % reduction) [4, 10]: 18%
- Combination activity 5 μM Compound 1 (cAUC % reduction) [5, 9]: 32%
- Combination activity 20 μM Compound 1 (cAUC % reduction) [5, 10]: 32%
- Combination activity 5 μM Compound 1 (cAUC % reduction) [6, 9]: −25%
- Combination activity 20 μM Compound 1 (cAUC % reduction) [6, 10]: 8%
- Combination activity 5 μM Compound 1 (cAUC % reduction) [7, 9]: 42%
- Combination activity 20 μM Compound 1 (cAUC % reduction) [7, 10]: 31%
- Combination activity 5 μM Compound 1 (cAUC % reduction) [8, 9]: 78%
- Combination activity 20 μM Compound 1 (cAUC % reduction) [8, 10]: 79%
- EC50 (HT29 cell line; in the absence of Compound 1): 2500 nM
- EC50 (HT29 cell line; [11]): 2500 nM
- EC50 (HT29 cell line; [12]): 1600 nM
- EC50 (NCI-H460 cell line; in the absence of Compound 1): 2600 nM
- EC50 (NCI-H460 cell line; [11]): 1600 nM
- EC50 (NCI-H460 cell line; [12]): 1700 nM
- EC50 (A549 cell line; in the absence of Compound 1): 2400 nM
- EC50 (A549 cell line; [11]): 2600 nM
- EC50 (A549 cell line; [12]): 1500 nM
- EC50 (4T1.2 cell line; 4 days after treatment, in the absence of Compound 1): 570 nM
- EC50 (4T1.2 cell line; 4 days, in the presence of 5 μM Compound 1): 500 nM
- EC50 (4T1.2 cell line; 4 days, in the presence of 20 μM Compound 1): 490 nM
- EC50 (EMT6 cell line; in the absence of Compound 1): 2700 nM
- EC50 (EMT6 cell line; [11]): 2500 nM
- EC50 (EMT6 cell line; [12]): 2600 nM
